#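 Each compound was tested at five concentrations against cells in 96-well plates for 48 hours. GI50 is the concentration that inhibits growth by half. TGI is the concentration that stops growth completely.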
# How the values were obtained:
# Experiment in all cases: growth of human tumour cells (NCI), 48 h
# OVCAR-8 ovarian = test system: OVCAR-8 ovarian
# A549 NSCLC = test system: A549 NSCLC
# SK-MEL-2 melanoma = test system: SK-MEL-2 melanoma
# SN12C renal = test system: SN12C renal
# KM12 colon = test system: KM12 colon
# RPMI-8226 leukemia = test system: RPMI-8226 leukemia
# SR leukemia = test system: SR leukemia
# BT-549 breast = test system: BT-549 breast
# SF-268 CNS = test system: SF-268 CNS
# CCRF-CEM leukemia = test system: CCRF-CEM leukemia
# NCI-H226 lung = test system: NCI-H226 lung
# TK-10 renal = test system: TK-10 renal
# 786-0 renal = test system: 786-0 renal
# PC-3 prostate = test system: PC-3 prostate
# SK-MEL-5 melanoma = test system: SK-MEL-5 melanoma
# HT29 colon = test system: HT29 colon
# COLO 205 colon = test system: COLO 205 colon
# HCT-15 colon = test system: HCT-15 colon
# HCC-2998 colon = test system: HCC-2998 colon
# NCI-H23 lung = test system: NCI-H23 lung
# EKVX NSCLC = test system: EKVX NSCLC
# IGROV1 ovarian = test system: IGROV1 ovarian
# RXF 393 renal = test system: RXF 393 renal
# OVCAR-4 ovarian = test system: OVCAR-4 ovarian
# HOP-92 NSCLC = test system: HOP-92 NSCLC
# HS 578T breast = test system: HS 578T breast
# K-562 leukemia = test system: K-562 leukemia
# HOP-62 NSCLC = test system: HOP-62 NSCLC
# NCI/ADR-RES ovarian = test system: NCI/ADR-RES ovarian
# SK-OV-3 ovarian = test system: SK-OV-3 ovarian
# UO-31 renal = test system: UO-31 renal
# UACC-257 melanoma = test system: UACC-257 melanoma
# SF-539 CNS = test system: SF-539 CNS
# NCI-H460 lung = test system: NCI-H460 lung
# MDA-MB-231 breast = test system: MDA-MB-231 breast
# SW-620 colon = test system: SW-620 colon
# SF-295 CNS = test system: SF-295 CNS
# DU-145 prostate = test system: DU-145 prostate
# SNB-19 CNS = test system: SNB-19 CNS
# MALME-3M melanoma = test system: MALME-3M melanoma
# U251 CNS = test system: U251 CNS
# OVCAR-5 ovarian = test system: OVCAR-5 ovarian
# MOLT-4 leukemia = test system: MOLT-4 leukemia
# ACHN renal = test system: ACHN renal
# SK-MEL-28 melanoma = test system: SK-MEL-28 melanoma
# M14 melanoma = test system: M14 melanoma
# LOX IMVI melanoma = test system: LOX IMVI melanoma
# UACC-62 melanoma = test system: UACC-62 melanoma
# HL-60(TB) leukemia = test system: HL-60(TB) leukemia
# A498 renal = test system: A498 renal
# MCF7 breast = test system: MCF7 breast
# SNB-75 CNS = test system: SNB-75 CNS
# MDA-MB-435 = test system: MDA-MB-435
# CAKI-1 renal = test system: CAKI-1 renal
# HCT-116 colon = test system: HCT-116 colon
smiles,measurement,setting,value
COc1cc(C(C)c2ccc3c(ccn3C)c2)cc(OC)c1OC (stereo not drawn),GI50,OVCAR-8 ovarian,0.0363 µM
same,TGI,OVCAR-8 ovarian,38.5 µM
same,GI50,A549 NSCLC,0.0233 µM
same,TGI,A549 NSCLC,> 100 µM
same,GI50,SK-MEL-2 melanoma,0.0984 µM
same,TGI,SK-MEL-2 melanoma,95.8 µM
same,GI50,SN12C renal,0.0671 µM
same,TGI,SN12C renal,> 100 µM
same,GI50,KM12 colon,< 0.01 µM
same,TGI,KM12 colon,60.2 µM
same,GI50,RPMI-8226 leukemia,0.0362 µM
same,TGI,RPMI-8226 leukemia,22.6 µM
same,GI50,SR leukemia,< 0.01 µM
same,TGI,SR leukemia,> 100 µM
same,GI50,BT-549 breast,0.0231 µM
same,TGI,BT-549 breast,19.3 µM
same,GI50,SF-268 CNS,0.0393 µM
same,TGI,SF-268 CNS,> 100 µM
same,GI50,CCRF-CEM leukemia,0.0307 µM
same,TGI,CCRF-CEM leukemia,> 100 µM
same,GI50,NCI-H226 lung,10.9 µM
same,TGI,NCI-H226 lung,57.3 µM
same,GI50,TK-10 renal,16.5 µM
same,TGI,TK-10 renal,92.6 µM
same,GI50,786-0 renal,0.0288 µM
same,TGI,786-0 renal,26.7 µM
same,GI50,PC-3 prostate,0.0171 µM
same,TGI,PC-3 prostate,> 100 µM
same,GI50,SK-MEL-5 melanoma,< 0.01 µM
same,TGI,SK-MEL-5 melanoma,0.391 µM
same,GI50,HT29 colon,< 0.01 µM
same,TGI,HT29 colon,14.2 µM
same,GI50,COLO 205 colon,< 0.01 µM
same,TGI,COLO 205 colon,0.0461 µM
same,GI50,HCT-15 colon,0.0106 µM
same,TGI,HCT-15 colon,> 100 µM
same,GI50,HCC-2998 colon,0.0276 µM
same,TGI,HCC-2998 colon,> 100 µM
same,GI50,NCI-H23 lung,0.0268 µM
same,TGI,NCI-H23 lung,> 100 µM
same,GI50,EKVX NSCLC,0.0674 µM
same,TGI,EKVX NSCLC,> 100 µM
same,GI50,IGROV1 ovarian,0.0291 µM
same,TGI,IGROV1 ovarian,> 100 µM
same,GI50,RXF 393 renal,< 0.01 µM
same,TGI,RXF 393 renal,> 100 µM
same,GI50,OVCAR-4 ovarian,0.414 µM
same,TGI,OVCAR-4 ovarian,> 100 µM
same,GI50,HOP-92 NSCLC,0.0251 µM
same,TGI,HOP-92 NSCLC,45.4 µM
same,GI50,HS 578T breast,0.0148 µM
same,TGI,HS 578T breast,> 100 µM
same,GI50,K-562 leukemia,< 0.01 µM
same,TGI,K-562 leukemia,> 100 µM
same,GI50,HOP-62 NSCLC,0.0385 µM
same,TGI,HOP-62 NSCLC,> 100 µM
same,GI50,NCI/ADR-RES ovarian,< 0.01 µM
same,TGI,NCI/ADR-RES ovarian,> 100 µM
same,GI50,SK-OV-3 ovarian,< 0.01 µM
same,TGI,SK-OV-3 ovarian,60.7 µM
same,GI50,UO-31 renal,0.189 µM
same,TGI,UO-31 renal,62.2 µM
same,GI50,UACC-257 melanoma,19.4 µM
same,TGI,UACC-257 melanoma,77.6 µM
same,GI50,SF-539 CNS,< 0.01 µM
same,TGI,SF-539 CNS,15.2 µM
same,GI50,NCI-H460 lung,0.0117 µM
same,TGI,NCI-H460 lung,> 100 µM
same,GI50,MDA-MB-231 breast,0.0551 µM
same,TGI,MDA-MB-231 breast,34.8 µM
same,GI50,SW-620 colon,< 0.01 µM
same,TGI,SW-620 colon,> 100 µM
same,GI50,SF-295 CNS,< 0.01 µM
same,TGI,SF-295 CNS,32.5 µM
same,GI50,DU-145 prostate,0.0343 µM
same,TGI,DU-145 prostate,> 100 µM
same,GI50,SNB-19 CNS,0.0405 µM
same,TGI,SNB-19 CNS,> 100 µM
same,GI50,MALME-3M melanoma,11.6 µM
same,TGI,MALME-3M melanoma,63.3 µM
same,GI50,U251 CNS,< 0.01 µM
same,TGI,U251 CNS,39 µM
same,GI50,OVCAR-5 ovarian,0.0559 µM
same,TGI,OVCAR-5 ovarian,> 100 µM
same,GI50,MOLT-4 leukemia,0.0449 µM
same,TGI,MOLT-4 leukemia,> 100 µM
same,GI50,ACHN renal,0.0172 µM
same,TGI,ACHN renal,> 100 µM
same,GI50,SK-MEL-28 melanoma,8.09 µM
same,TGI,SK-MEL-28 melanoma,> 100 µM
same,GI50,M14 melanoma,< 0.01 µM
same,TGI,M14 melanoma,22 µM
same,GI50,LOX IMVI melanoma,0.0207 µM
same,TGI,LOX IMVI melanoma,> 100 µM
COc1ccc(NC(=S)N/N=C/c2c(C)n(C)n(-c3ccccc3)c2=O)cc1,TGI,OVCAR-8 ovarian,55.7 µM
same,TGI,UACC-62 melanoma,> 100 µM
same,TGI,HL-60(TB) leukemia,> 100 µM
same,TGI,SK-MEL-2 melanoma,> 100 µM
same,TGI,A498 renal,49.8 µM
same,TGI,KM12 colon,> 100 µM
same,TGI,RPMI-8226 leukemia,> 100 µM
same,TGI,SR leukemia,> 100 µM
same,TGI,BT-549 breast,> 100 µM
same,TGI,SF-268 CNS,70.7 µM
same,TGI,MCF7 breast,> 100 µM
same,TGI,SNB-75 CNS,84.3 µM
same,TGI,CCRF-CEM leukemia,> 100 µM
same,TGI,NCI-H226 lung,> 100 µM
same,TGI,TK-10 renal,> 100 µM
same,TGI,786-0 renal,60.4 µM
same,TGI,PC-3 prostate,> 100 µM
same,TGI,SK-MEL-5 melanoma,> 100 µM
same,TGI,HT29 colon,> 100 µM
same,TGI,MDA-MB-435,> 100 µM
same,TGI,COLO 205 colon,> 100 µM
same,TGI,HCT-15 colon,> 100 µM
same,TGI,HCC-2998 colon,> 100 µM
same,TGI,NCI-H23 lung,> 100 µM
same,TGI,EKVX NSCLC,> 100 µM
same,TGI,IGROV1 ovarian,> 100 µM
same,TGI,RXF 393 renal,56.6 µM
same,TGI,OVCAR-4 ovarian,39.8 µM
same,TGI,HOP-92 NSCLC,65.4 µM
same,TGI,HS 578T breast,70.3 µM
same,TGI,K-562 leukemia,> 100 µM
same,TGI,HOP-62 NSCLC,41.7 µM
same,TGI,NCI/ADR-RES ovarian,> 100 µM
same,TGI,SK-OV-3 ovarian,82.6 µM
same,TGI,UO-31 renal,> 100 µM
same,TGI,UACC-257 melanoma,> 100 µM
same,TGI,SF-539 CNS,59.4 µM
same,TGI,MDA-MB-231 breast,62.6 µM
same,TGI,SW-620 colon,> 100 µM
same,TGI,SF-295 CNS,> 100 µM
same,TGI,SNB-19 CNS,46.2 µM
same,TGI,U251 CNS,51.7 µM
same,TGI,CAKI-1 renal,51.8 µM
same,TGI,MOLT-4 leukemia,> 100 µM
same,TGI,HCT-116 colon,> 100 µM
same,TGI,ACHN renal,> 100 µM
same,TGI,SK-MEL-28 melanoma,> 100 µM
same,TGI,M14 melanoma,> 100 µM
same,TGI,LOX IMVI melanoma,> 100 µM

# — PubChem BioAssay (NCI)
